The results in this text go back to patent publication US8975417B2, “Pyrazolopyrrolidine derivatives and their use in the treatment of disease” (Novartis AG, priority 2013, dated 2015).

A value given as a limit tells only on which side of the number the result lay.

Experiment [1] relates to K-562 cells. Description: Cell growth inhibition assay (CellTiter-Glo), K-562. To be noted: Homo sapiens, K562, read-out: K-562 TGI. Type of experiment: cell-based, human. In short, it runs like this: (§1)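 CTG luminescence (cellular ATP) after compound treatment; values background- and day 0-corrected, vehicle (0.1% DMSO) = 100%, medium only = −100%. Dose range: 3-fold dilutions from 10 μM. IC50/TGI by 4-parameter fit.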
On the technique in general: ATP-based viability assays read luminescence as a measure of living cells.

In experiment [2] the target is His-CREBBP (1081-1197) bromodomain (Homo sapiens (Human), UniProt Q92793). Description: AlphaScreen in-vitro binding assay for CREBBP. The note with it: biochemical. In short, it runs like this:
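Ni-chelate acceptor and streptavidin donor beads (45 µg/mL each, in 50 mM HEPES pH 7.5, 150 mM NaCl, 0.02% BSA) were then added for 60 min at room temperature. IC50 came from 8-point non-linear regression.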
A general note: Bead proximity is the source of the signal in Alpha formats.

Experiment [3] concerns THP-1 cells. The experiment in a line: Cell growth inhibition assay (CellTiter-Glo), THP-1. Type of experiment: cell-based. The note with it: Homo sapiens, read-out: THP-1 TGI. In short, it runs like this: as §1
Experiment [4] deals with His-Brd4(44-477) (Homo sapiens (Human), UniProt O60885). Description: TR-FRET in-vitro binding assay for BRD4. To be noted: biochemical. In short, it runs like this: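 Bromodomain protein (45 nM in its addition solution) and tetra-acetylated histone H4 peptide (AcK5/8/12/16; 60 nM in its addition solution) were incubated with compounds for 35 min at 30 °C in 50 mM HEPES pH 7.5, 50 mM NaCl, 0.005% Tween20, 0.1% BSA. Eu-anti-His6 plus streptavidin-allophycocyanin detection followed, with TR-FRET read-out.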

Sequence of His-CREBBP (1081-1197) bromodomain (Q92793 1081-1197): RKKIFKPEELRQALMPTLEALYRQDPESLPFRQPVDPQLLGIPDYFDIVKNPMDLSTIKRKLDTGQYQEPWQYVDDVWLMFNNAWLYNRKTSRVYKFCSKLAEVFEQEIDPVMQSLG

On to `CCc1nn(CCOCC(F)(F)F)c2c1C(c1ccc(Cl)cc1)N(c1cc(OC)c3nnc(C)n3c1)C2=O` (stereo not drawn) [Example 108, 4-(4-chlorophenyl)-3-ethyl-5-(8-methoxy-3-methyl-[1,2,4]triazolo[4,3-a]pyridin-6-yl)-1-(2-(2,2,2-trifluoroethoxy)ethyl)-4,5-dihydropyrrolo[3,4-c]pyrazol-6(1H)-one], for which the IC (total growth inhibition) in experiment [1] was over 10 µM; in experiment [3], 0.832 µM. Further, the IC50 (commonly the concentration that inhibits the measured activity by half) in experiment [2] is over 37 µM; in experiment [4] it was 0.14 µM.
In the same order, the values of `COc1ncccc1-n1nc(C)c2c1C(=O)N(c1cc(C)c3nnn(C)c3n1)C2c1ccc(Cl)cc1` (stereo not drawn) [Example 109, 4-(4-chlorophenyl)-5-(3,7-dimethyl-3H-[1,2,3]triazolo[4,5-b]pyridin-5-yl)-1-(2-methoxypyridin-3-yl)-3-methyl-4,5-dihydropyrrolo[3,4-c]pyrazol-6(1H)-one] are over 10 µM, 0.0904 µM, over 37 µM and 0.017 µM.
For `Cc1nn(C2CC2)c2c1C(c1ccc(Cl)cc1)N(c1cc(C)c3nnn(C)c3n1)C2=O` (stereo not drawn) [Example 110, 4-(4-chlorophenyl)-1-cyclopropyl-5-(3,7-dimethyl-3H-[1,2,3]triazolo[4,5-b]pyridin-5-yl)-3-methyl-4,5-dihydropyrrolo[3,4-c]pyrazol-6(1H)-one] the same measures were over 10 µM, 0.0198 µM, over 37 µM and 0.012 µM.
Turning to `COc1ncccc1-n1nc(C)c2c1C(=O)N(c1cc(C)c3nnc(C)n3n1)C2c1ccc(Cl)cc1` (stereo not drawn) [Example 111, 4-(4-chlorophenyl)-5-(3,8-dimethyl-[1,2,4]triazolo[4,3-b]pyridazin-6-yl)-1-(2-methoxypyridin-3-yl)-3-methyl-4,5-dihydropyrrolo[3,4-c]pyrazol-6(1H)-one], the results for the IC (total growth inhibition) in experiment [1] and in experiment [3] were over 10 µM and 0.0484 µM, respectively. The IC50 came to 29.7 µM in experiment [2] and 0.017 µM in experiment [4].
With `Cc1nn(C2CC2)c2c1C(c1ccc(Cl)cc1)N(c1cc(N(C)C(=O)OC(C)(C)C)c3nnc(C)n3n1)C2=O` (stereo not drawn) [Example 112, tert-butyl (6-(4-(4-chlorophenyl)-1-cyclopropyl-3-methyl-6-oxopyrrolo[3,4-c]pyrazol-5(1H,4H,6H)-yl)-3-methyl-[1,2,4]triazolo[4,3-b]pyridazin-8-yl)(methyl)carbamate], the IC (total growth inhibition) in experiment [1] was over 10 µM; in experiment [3], 3.17 µM. Besides, the IC50 in experiment [2] and in experiment [4] was over 37 µM throughout.
Regarding `Cc1nn(-c2ccnn2C)c2c1C(c1ccc(Cl)cc1)N(c1cc(C)c3nnc(C)n3n1)C2=O` (stereo not drawn) [Example 114, 4-(4-chlorophenyl)-5-(3,8-dimethyl-[1,2,4]triazolo[4,3-b]pyridazin-6-yl)-3-methyl-1-(1-methyl-1H-pyrazol-5-yl)-4,5-dihydropyrrolo[3,4-c]pyrazol-6(1H)-one], the IC (total growth inhibition) is over 10 µM in experiment [1] and 0.0765 µM in experiment [3]. For the same compound, the IC50 in experiment [2] was over 37 µM; in experiment [4] it was 0.027 µM.
In the same order, the values of `CCn1nc2c(c1C)C(c1ccc(Cl)cc1)N(c1cc(C)c3nnc(C)n3c1)C2=O` (stereo not drawn) [Example 115, 4-(4-chlorophenyl)-5-(3,8-dimethyl-[1,2,4]triazolo[4,3-a]pyridin-6-yl)-2-ethyl-3-methyl-4,5-dihydropyrrolo[3,4-c]pyrazol-6(2H)-one] are over 10 µM, 0.0712 µM, 1.2 µM and 0.043 µM.
Turning to `CCn1nc(C)c2c1C(=O)N(c1cc(C)c3nnc(C)n3c1)C2c1ccc(Cl)cc1` (stereo not drawn) [Example 116, 4-(4-chlorophenyl)-5-(3,8-dimethyl-[1,2,4]triazolo[4,3-a]pyridin-6-yl)-1-ethyl-3-methyl-4,5-dihydropyrrolo[3,4-c]pyrazol-6(1H)-one], the IC (total growth inhibition) in experiment [1] was over 10 µM; in experiment [3] it was 0.0354 µM. Also, the IC50 is 15 µM in experiment [2] and 0.032 µM in experiment [4].
In the same order, the values of `Cc1cc(N2C(=O)c3c(c(C4CC4)nn3-c3ccnn3C)C2c2ccc(Cl)cc2)cn2c(C)nnc12` (stereo not drawn) [Example 117, 4-(4-chlorophenyl)-3-cyclopropyl-5-(3,8-dimethyl-[1,2,4]triazolo[4,3-a]pyridin-6-yl)-1-(1-methyl-1H-pyrazol-5-yl)-4,5-dihydropyrrolo[3,4-c]pyrazol-6(1H)-one] are over 10 µM, 0.0671 µM, over 37 µM and 0.039 µM.
For `Cc1nn(-c2ccnn2C)c2c1[C@@H](c1ccc(Cl)cc1)N(c1cc(C)c(=O)n(C)c1)C2=O` [Example 120, (R)-4-(4-chlorophenyl)-5-(1,5-dimethyl-6-oxo-1,6-dihydropyridin-3-yl)-3-methyl-1-(1-methyl-1H-pyrazol-5-yl)-4,5-dihydropyrrolo[3,4-c]pyrazol-6(1H)-one] the same measures were over 10 µM, 0.165 µM, 4.3 µM and 0.055 µM.
On to `Cc1nn(-c2ccnn2C)c2c1[C@H](c1ccc(Cl)cc1)N(c1cc(C)c(=O)n(C)c1)C2=O` [Example 121, (S)-4-(4-chlorophenyl)-5-(1,5-dimethyl-6-oxo-1,6-dihydropyridin-3-yl)-3-methyl-1-(1-methyl-1H-pyrazol-5-yl)-4,5-dihydropyrrolo[3,4-c]pyrazol-6(1H)-one], for which the IC (total growth inhibition) in experiment [1] is over 10 µM; in experiment [3], 5.03 µM. Also, the IC50 in experiment [2] was over 37 µM; in experiment [4], 4 µM.
In the same order, the values of `Cc1nn(C2CC2)c2c1[C@@H](c1ccc(Cl)cc1)N(c1cc(C)c3nnc(C)n3n1)C2=O` [Example 122, (R)-4-(4-chlorophenyl)-1-cyclopropyl-5-(3,8-dimethyl-[1,2,4]triazolo[4,3-b]-pyridazin-6-yl)-3-methyl-4,5-dihydropyrrolo[3,4-c]pyrazol-6(1H)-one] are over 10 µM, 0.0107 µM, over 37 µM and under 0.011 µM.
Take `Cc1nn(-c2ccnn2C)c2c1[C@H](c1ccc(Cl)cc1)N(c1cc(C)c3nnc(C)n3c1)C2=O` [Example 124, (S)-4-(4-chlorophenyl)-5-(3,8-dimethyl-[1,2,4]triazolo[4,3-a]pyridin-6-yl)-3-methyl-1-(1-methyl-1H-pyrazol-5-yl)-4,5-dihydropyrrolo[3,4-c]pyrazol-6(1H)-one]: the IC (total growth inhibition) was over 10 µM in experiment [1] and 1.54 µM in experiment [3]. Further, the IC50 in experiment [2] was over 37 µM; in experiment [4], 25 µM.
In the same order, the values of `Cc1nn(-c2ccnn2C)c2c1[C@@H](c1ccc(Cl)cc1)N(c1cc(C)c3nnc(C)n3c1)C2=O` [Example 125, (R)-4-(4-chlorophenyl)-5-(3,8-dimethyl-[1,2,4]triazolo[4,3-a]pyridin-6-yl)-3-methyl-1-(1-methyl-1H-pyrazol-5-yl)-4,5-dihydropyrrolo[3,4-c]pyrazol-6(1H)-one] are over 10 µM, 0.0473 µM, 21 µM and 0.025 µM.
`CC(=O)Nc1cc(N2C(=O)c3c(c(C)nn3C3CC3)C2c2ccc(Cl)cc2)nn2c(C)nnc12` (stereo not drawn) [Example 126, N-(6-(4-(4-chlorophenyl)-1-cyclopropyl-3-methyl-6-oxopyrrolo[3,4-c]pyrazol-5-(1H,4H,6H)-yl)-3-methyl-[1,2,4]triazolo[4,3-b]pyridazin-8-yl)acetamide]: the IC (total growth inhibition) is over 10 µM in experiment [1] and 1.15 µM in experiment [3]. Moreover, the IC50 in experiment [2] is over 37 µM; in experiment [4] it was 1.1 µM.
In the same order, the values of `COc1ncccc1-n1nc(C)c2c1C(=O)N(c1cc(C)c(=O)n(C)c1)[C@H]2c1ccc(Cl)cc1` [Example 127, (S)-4-(4-chlorophenyl)-5-(1,5-dimethyl-6-oxo-1,6-dihydropyridin-3-yl)-1-(2-methoxypyridin-3-yl)-3-methyl-4,5-dihydropyrrolo[3,4-c]pyrazol-6(1H)-one] are over 10 µM, over 10 µM, over 37 µM and 5.7 µM.
In the same order, the values of `COc1ncccc1-n1nc(C)c2c1C(=O)N(c1cc(C)c(=O)n(C)c1)[C@@H]2c1ccc(Cl)cc1` [Example 128, (R)-4-(4-chlorophenyl)-5-(1,5-dimethyl-6-oxo-1,6-dihydropyridin-3-yl)-1-(2-methoxypyridin-3-yl)-3-methyl-4,5-dihydropyrrolo[3,4-c]pyrazol-6(1H)-one] are over 10 µM, 0.107 µM, 3.7 µM and 0.036 µM.
In the same order, the values of `COCc1nn(C2CC2)c2c1C(c1ccc(Cl)cc1)N(c1cc(C)c3nnc(C)n3c1)C2=O` (stereo not drawn) [Example 130, 4-(4-chlorophenyl)-1-cyclopropyl-5-(3,8-dimethyl-[1,2,4]triazolo[4,3-a]pyridin-6-yl)-3-(methoxymethyl)-4,5-dihydropyrrolo[3,4-c]pyrazol-6(1H)-one] are over 10 µM, 0.0813 µM, 19 µM and 0.042 µM.
